Test results published in the NIST ThermoML archive (doi:10.1021/je600554h).
± gives the expanded uncertainty stated by the source.

Assay: xn = mol fraction of the nth substance listed
Settings: 100 kPa, Liquid; for viscosity: Capillary tube (Ostwald / Ubbelohde) method

Work on `COC(C)(C)C` [2-methoxy-2-methylpropane] + CCCCCCCC yielded a mass density (298.15 K, x1 = 0.8975) of 729.408 ± 0.59 kg/m3, a viscosity (303.15 K, x1 = 0.1019) of 0.468 ± 0.009 mPa·s and a viscosity (303.15 K, x1 = 0.2189) of 0.447 ± 0.009 mPa·s. For the same compound, the viscosity (303.15 K, x1 = 0.3026) was 0.43 ± 0.009 mPa·s, the viscosity (303.15 K, x1 = 0.4029) was 0.414 ± 0.009 mPa·s and the viscosity (303.15 K, x1 = 0.4995) was 0.397 ± 0.008 mPa·s. For the same compound, the viscosity (303.15 K, x1 = 0.6099) was 0.382 ± 0.008 mPa·s, the viscosity (303.15 K, x1 = 0.7072) was 0.367 ± 0.008 mPa·s and the mass density (303.15 K, x1 = 0.1059) was 696.633 ± 0.63 kg/m3. For the same compound, the mass density (303.15 K, x1 = 0.2123) was 699.177 ± 0.62 kg/m3, the mass density (303.15 K, x1 = 0.3019) was 701.546 ± 0.62 kg/m3 and the mass density (303.15 K, x1 = 0.4099) was 704.666 ± 0.61 kg/m3. It also gave a mass density (303.15 K, x1 = 0.5053) of 707.798 ± 0.61 kg/m3, a mass density (303.15 K, x1 = 0.6005) of 711.146 ± 0.6 kg/m3 and a mass density (303.15 K, x1 = 0.6934) of 714.806 ± 0.6 kg/m3. It also gave a mass density (303.15 K, x1 = 0.7967) of 719.238 ± 0.6 kg/m3, a mass density (303.15 K, x1 = 0.8975) of 724.303 ± 0.59 kg/m3 and a viscosity (308.15 K, x1 = 0.1019) of 0.443 ± 0.009 mPa·s. The viscosity (308.15 K, x1 = 0.2189) was 0.425 ± 0.009 mPa·s, the viscosity (308.15 K, x1 = 0.3026) was 0.409 ± 0.009 mPa·s and the viscosity (308.15 K, x1 = 0.4029) was 0.393 ± 0.008 mPa·s. For the same compound, the viscosity (308.15 K, x1 = 0.4995) was 0.376 ± 0.008 mPa·s, the viscosity (308.15 K, x1 = 0.6099) was 0.362 ± 0.008 mPa·s and the mass density (308.15 K, x1 = 0.1059) was 692.484 ± 0.64 kg/m3. It also gave a mass density (308.15 K, x1 = 0.2123) of 694.926 ± 0.63 kg/m3, a mass density (308.15 K, x1 = 0.3019) of 697.212 ± 0.62 kg/m3 and a mass density (308.15 K, x1 = 0.4099) of 700.213 ± 0.62 kg/m3. The mass density (308.15 K, x1 = 0.5053) was 703.231 ± 0.61 kg/m3, the mass density (308.15 K, x1 = 0.6005) was 706.458 ± 0.61 kg/m3 and the mass density (308.15 K, x1 = 0.6934) was 709.988 ± 0.6 kg/m3. The mass density (308.15 K, x1 = 0.7967) was 714.261 ± 0.6 kg/m3, the mass density (308.15 K, x1 = 0.8975) was 719.151 ± 0.6 kg/m3 and the viscosity (313.15 K, x1 = 0.1019) was 0.42 ± 0.009 mPa·s. For the same compound, the viscosity (313.15 K, x1 = 0.2189) was 0.402 ± 0.009 mPa·s, the viscosity (313.15 K, x1 = 0.3026) was 0.387 ± 0.008 mPa·s and the viscosity (313.15 K, x1 = 0.4029) was 0.374 ± 0.008 mPa·s. It also gave a viscosity (313.15 K, x1 = 0.4995) of 0.358 ± 0.008 mPa·s, a mass density (313.15 K, x1 = 0.1059) of 688.303 ± 0.64 kg/m3 and a mass density (313.15 K, x1 = 0.2123) of 690.652 ± 0.63 kg/m3. For the same compound, the mass density (313.15 K, x1 = 0.3019) was 692.842 ± 0.63 kg/m3, the mass density (313.15 K, x1 = 0.4099) was 695.728 ± 0.62 kg/m3 and the mass density (313.15 K, x1 = 0.5053) was 698.629 ± 0.62 kg/m3. For the same compound, the mass density (313.15 K, x1 = 0.6005) was 701.736 ± 0.61 kg/m3, the mass density (313.15 K, x1 = 0.6934) was 705.127 ± 0.61 kg/m3 and the mass density (313.15 K, x1 = 0.7967) was 709.24 ± 0.61 kg/m3. It also gave a mass density (313.15 K, x1 = 0.8975) of 713.95 ± 0.6 kg/m3, a viscosity (318.15 K, x1 = 0.1019) of 0.398 ± 0.009 mPa·s and a viscosity (318.15 K, x1 = 0.2189) of 0.381 ± 0.008 mPa·s. For the same compound, the viscosity (318.15 K, x1 = 0.3026) was 0.367 ± 0.008 mPa·s, the viscosity (318.15 K, x1 = 0.4029) was 0.355 ± 0.008 mPa·s and the mass density (318.15 K, x1 = 0.1059) was 684.108 ± 0.65 kg/m3. For the same compound, the mass density (318.15 K, x1 = 0.2123) was 686.345 ± 0.64 kg/m3, the mass density (318.15 K, x1 = 0.3019) was 688.444 ± 0.63 kg/m3 and the mass density (318.15 K, x1 = 0.4099) was 691.207 ± 0.63 kg/m3. It also gave a mass density (318.15 K, x1 = 0.5053) of 693.985 ± 0.62 kg/m3, a mass density (318.15 K, x1 = 0.6005) of 696.968 ± 0.62 kg/m3 and a mass density (318.15 K, x1 = 0.6934) of 700.224 ± 0.61 kg/m3. For the same compound, the mass density (318.15 K, x1 = 0.7967) was 704.169 ± 0.61 kg/m3, the mass density (318.15 K, x1 = 0.8975) was 708.696 ± 0.61 kg/m3 and the viscosity (323.15 K, x1 = 0.1019) was 0.377 ± 0.008 mPa·s. For the same compound, the viscosity (323.15 K, x1 = 0.2189) was 0.361 ± 0.008 mPa·s, the viscosity (323.15 K, x1 = 0.3026) was 0.349 ± 0.008 mPa·s and the mass density (323.15 K, x1 = 0.1059) was 679.876 ± 0.65 kg/m3. The mass density (323.15 K, x1 = 0.2123) was 682.017 ± 0.65 kg/m3, the mass density (323.15 K, x1 = 0.3019) was 684.017 ± 0.64 kg/m3 and the mass density (323.15 K, x1 = 0.4099) was 686.655 ± 0.63 kg/m3. For the same compound, the mass density (323.15 K, x1 = 0.5053) was 689.306 ± 0.63 kg/m3, the mass density (323.15 K, x1 = 0.6005) was 692.159 ± 0.62 kg/m3 and the mass density (323.15 K, x1 = 0.6934) was 695.271 ± 0.62 kg/m3. For the same compound, the mass density (323.15 K, x1 = 0.7967) was 699.039 ± 0.61 kg/m3, the viscosity (328.15 K, x1 = 0.1019) was 0.359 ± 0.008 mPa·s and the viscosity (328.15 K, x1 = 0.2189) was 0.344 ± 0.008 mPa·s. For the same compound, the mass density (328.15 K, x1 = 0.1059) was 675.617 ± 0.66 kg/m3, the mass density (328.15 K, x1 = 0.2123) was 677.665 ± 0.65 kg/m3 and the mass density (328.15 K, x1 = 0.3019) was 679.549 ± 0.65 kg/m3. The mass density (328.15 K, x1 = 0.4099) was 682.067 ± 0.64 kg/m3, the mass density (328.15 K, x1 = 0.5053) was 684.587 ± 0.64 kg/m3 and the mass density (328.15 K, x1 = 0.6005) was 687.304 ± 0.63 kg/m3. It also gave a mass density (328.15 K, x1 = 0.6934) of 690.272 ± 0.63 kg/m3, a viscosity (333.15 K, x1 = 0.1019) of 0.342 ± 0.008 mPa·s and a mass density (333.15 K, x1 = 0.1059) of 671.333 ± 0.67 kg/m3. For the same compound, the mass density (333.15 K, x1 = 0.2123) was 673.25 ± 0.66 kg/m3, the mass density (333.15 K, x1 = 0.3019) was 675.046 ± 0.65 kg/m3 and the mass density (333.15 K, x1 = 0.4099) was 677.434 ± 0.65 kg/m3. The mass density (333.15 K, x1 = 0.5053) was 679.825 ± 0.64 kg/m3, the mass density (333.15 K, x1 = 0.6005) was 682.397 ± 0.64 kg/m3 and the mass density (338.15 K, x1 = 0.1059) was 667.018 ± 0.67 kg/m3. The mass density (338.15 K, x1 = 0.2123) was 668.815 ± 0.66 kg/m3, the mass density (338.15 K, x1 = 0.3019) was 670.514 ± 0.66 kg/m3 and the mass density (338.15 K, x1 = 0.4099) was 672.758 ± 0.65 kg/m3. It also gave a mass density (343.15 K, x1 = 0.1059) of 662.68 ± 0.68 kg/m3, a mass density (343.15 K, x1 = 0.2123) of 664.349 ± 0.67 kg/m3 and a mass density (343.15 K, x1 = 0.3019) of 665.923 ± 0.67 kg/m3. It also gave a mass density (343.15 K, x1 = 0.4099) of 668.038 ± 0.66 kg/m3, a mass density (348.15 K, x1 = 0.1059) of 658.279 ± 0.68 kg/m3 and a mass density (348.15 K, x1 = 0.2123) of 659.83 ± 0.68 kg/m3. For the same compound, the mass density (348.15 K, x1 = 0.3019) was 661.299 ± 0.67 kg/m3, the mass density (353.15 K, x1 = 0.1059) was 653.843 ± 0.69 kg/m3 and the mass density (353.15 K, x1 = 0.2123) was 655.28 ± 0.68 kg/m3. For the same compound, the mass density (353.15 K, x1 = 0.3019) was 656.638 ± 0.68 kg/m3, the mass density (358.15 K, x1 = 0.1059) was 649.405 ± 0.7 kg/m3 and the mass density (358.15 K, x1 = 0.2123) was 650.681 ± 0.69 kg/m3. The mass density (358.15 K, x1 = 0.3019) was 651.917 ± 0.69 kg/m3, the mass density (363.15 K, x1 = 0.1059) was 644.85 ± 0.7 kg/m3 and the mass density (363.15 K, x1 = 0.2123) was 646.031 ± 0.7 kg/m3. The mass density (363.15 K, x1 = 0.3019) was 647.14 ± 0.69 kg/m3.
